Consider seven compounds from ChEMBL document CHEMBL1201862, “PubChem BioAssay data set” (2004).

Active and inactive are the calls of the source.

Test [1] has as its target Macrophage-stimulating protein receptor (Homo sapiens, UniProt Q04912). Put plainly: Navigating the Kinome. Panel member name: MST1R. In kind it is functional.
The target in test [2] is cAMP-dependent protein kinase catalytic subunit PRKX (Homo sapiens, UniProt P51817). The test is classed as functional.
In test [3] the target is Serine/threonine-protein kinase BRSK1 (Homo sapiens, UniProt Q8TDC3). The test is classed as functional.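 Also: measured within a kinome-wide kinase panel, with the target listed as KIAA1811.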
For test [4], the target named is Rho-associated protein kinase 1 (Homo sapiens, UniProt Q13464). The test is classed as functional.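 Also: measured within a broad kinome-wide panel profiling many kinases.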
For test [5], the target named is Testis-specific serine/threonine-protein kinase 1 (Homo sapiens, UniProt Q9BXA7). In kind it is functional.
Test [6] deals with Serine/threonine-protein kinase PAK 1 (Homo sapiens, UniProt Q13153). In kind it is functional.
The target of test [7] is MAP kinase-activated protein kinase 2 (Homo sapiens, UniProt P49137). The test is classed as functional.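 Also: measured as one member of a kinome-wide kinase panel.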
Test [8] addresses Serine/threonine-protein kinase Nek2 (Homo sapiens, UniProt P51955). In kind it is functional.
Test [9] has as its target Calcium/calmodulin-dependent protein kinase type II subunit beta (Homo sapiens, UniProt Q13554). The test is classed as functional.
The target of test [10] is Proto-oncogene tyrosine-protein kinase Src (Homo sapiens, UniProt P12931). The test is classed as functional.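 Also: SRC entry within a kinome-wide kinase profiling panel.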
The target in test [11] is Lymphokine-activated killer T-cell-originated protein kinase (Homo sapiens, UniProt Q96KB5). The test is classed as functional.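 Also: value comes from a kinase panel screen in which TOPK was one of the panel members.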
In a further test the target is T1, Aurora kinase A (Homo sapiens, UniProt O14965).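 Also: value from the Navigating the Kinome kinase panel profiling, panel entry STK6.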
T1 sequence (O14965 whole entry): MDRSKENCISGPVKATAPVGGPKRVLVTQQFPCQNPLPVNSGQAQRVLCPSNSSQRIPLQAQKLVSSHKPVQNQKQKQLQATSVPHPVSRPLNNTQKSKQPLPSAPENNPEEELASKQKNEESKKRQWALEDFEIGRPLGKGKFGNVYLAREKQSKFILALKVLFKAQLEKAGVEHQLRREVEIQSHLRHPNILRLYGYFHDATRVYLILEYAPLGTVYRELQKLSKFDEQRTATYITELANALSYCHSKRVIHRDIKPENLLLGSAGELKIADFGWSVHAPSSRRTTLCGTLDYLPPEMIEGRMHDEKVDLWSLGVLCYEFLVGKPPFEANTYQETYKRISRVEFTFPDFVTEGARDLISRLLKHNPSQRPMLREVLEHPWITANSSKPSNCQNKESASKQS
In kind it is functional.

Test [12] deals with T2, Heat shock factor protein 1 (Mus musculus, UniProt P38532).
T2 sequence (P38532 whole entry): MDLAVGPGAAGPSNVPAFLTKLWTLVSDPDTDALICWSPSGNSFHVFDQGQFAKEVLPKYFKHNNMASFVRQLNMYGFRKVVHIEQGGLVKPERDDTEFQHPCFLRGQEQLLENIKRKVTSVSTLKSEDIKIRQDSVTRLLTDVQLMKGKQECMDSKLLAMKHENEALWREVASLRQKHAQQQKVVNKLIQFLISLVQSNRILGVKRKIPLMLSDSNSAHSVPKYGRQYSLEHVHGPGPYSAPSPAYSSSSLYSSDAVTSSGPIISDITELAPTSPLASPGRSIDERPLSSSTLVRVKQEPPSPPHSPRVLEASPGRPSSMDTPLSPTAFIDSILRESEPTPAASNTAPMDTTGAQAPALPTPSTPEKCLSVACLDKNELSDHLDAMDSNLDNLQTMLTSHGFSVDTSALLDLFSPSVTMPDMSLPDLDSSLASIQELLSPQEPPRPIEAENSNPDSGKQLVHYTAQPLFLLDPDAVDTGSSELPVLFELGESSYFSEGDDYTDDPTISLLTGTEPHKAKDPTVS
The experiment in a line: decrease of HSF1-responsive luciferase luminescence – cell-based, NIH3T3, dose retest, confirmation (AID 2382).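 Also: NIH3T3 fibroblasts with HSF1-driven luciferase reporter stressed by proteasome inhibitor MG132; luminescence from HSF1-driven luciferase expression after 8 hours of MG132 stress.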 The test is classed as functional.

The target in test [13] is T3, Histone-lysine N-methyltransferase NSD2 (Homo sapiens, UniProt O96028).
T3 sequence (O96028 whole entry): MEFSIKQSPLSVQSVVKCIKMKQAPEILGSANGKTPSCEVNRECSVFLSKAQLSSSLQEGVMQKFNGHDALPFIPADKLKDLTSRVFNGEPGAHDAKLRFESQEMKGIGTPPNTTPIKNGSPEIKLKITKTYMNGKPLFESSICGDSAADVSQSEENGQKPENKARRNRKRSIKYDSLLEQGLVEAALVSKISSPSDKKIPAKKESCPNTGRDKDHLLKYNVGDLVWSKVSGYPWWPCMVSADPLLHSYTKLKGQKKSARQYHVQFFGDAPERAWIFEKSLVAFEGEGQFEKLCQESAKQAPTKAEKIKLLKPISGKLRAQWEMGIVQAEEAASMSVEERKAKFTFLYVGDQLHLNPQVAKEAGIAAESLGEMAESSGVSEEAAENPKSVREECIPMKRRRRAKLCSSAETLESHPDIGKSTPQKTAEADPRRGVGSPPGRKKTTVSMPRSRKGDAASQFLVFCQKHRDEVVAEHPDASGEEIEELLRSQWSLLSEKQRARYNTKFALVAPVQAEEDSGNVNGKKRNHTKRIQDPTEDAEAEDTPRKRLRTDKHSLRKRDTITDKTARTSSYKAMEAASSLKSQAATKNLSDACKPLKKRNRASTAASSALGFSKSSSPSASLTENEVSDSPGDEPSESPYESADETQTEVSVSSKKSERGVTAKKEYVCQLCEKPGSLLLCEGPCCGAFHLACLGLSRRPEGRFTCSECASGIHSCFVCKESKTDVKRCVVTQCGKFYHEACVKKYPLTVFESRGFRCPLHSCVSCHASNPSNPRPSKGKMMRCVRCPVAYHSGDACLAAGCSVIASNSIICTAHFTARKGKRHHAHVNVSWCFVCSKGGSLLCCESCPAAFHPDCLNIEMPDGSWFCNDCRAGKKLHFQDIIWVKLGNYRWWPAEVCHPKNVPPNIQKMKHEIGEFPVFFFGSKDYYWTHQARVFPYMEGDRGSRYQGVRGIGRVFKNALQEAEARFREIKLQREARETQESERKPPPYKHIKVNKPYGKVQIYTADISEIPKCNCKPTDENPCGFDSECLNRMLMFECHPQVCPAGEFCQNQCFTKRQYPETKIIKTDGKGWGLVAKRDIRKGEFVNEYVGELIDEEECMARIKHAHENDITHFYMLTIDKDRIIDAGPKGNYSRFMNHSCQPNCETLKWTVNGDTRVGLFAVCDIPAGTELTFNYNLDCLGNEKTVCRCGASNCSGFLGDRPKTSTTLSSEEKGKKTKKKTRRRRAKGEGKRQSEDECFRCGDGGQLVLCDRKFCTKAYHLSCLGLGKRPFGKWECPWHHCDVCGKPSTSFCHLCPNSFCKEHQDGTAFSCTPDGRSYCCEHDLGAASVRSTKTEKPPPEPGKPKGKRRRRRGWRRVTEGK
In kind it is biochemical.

Sequence of Rho-associated protein kinase 1 (Q13464 whole entry): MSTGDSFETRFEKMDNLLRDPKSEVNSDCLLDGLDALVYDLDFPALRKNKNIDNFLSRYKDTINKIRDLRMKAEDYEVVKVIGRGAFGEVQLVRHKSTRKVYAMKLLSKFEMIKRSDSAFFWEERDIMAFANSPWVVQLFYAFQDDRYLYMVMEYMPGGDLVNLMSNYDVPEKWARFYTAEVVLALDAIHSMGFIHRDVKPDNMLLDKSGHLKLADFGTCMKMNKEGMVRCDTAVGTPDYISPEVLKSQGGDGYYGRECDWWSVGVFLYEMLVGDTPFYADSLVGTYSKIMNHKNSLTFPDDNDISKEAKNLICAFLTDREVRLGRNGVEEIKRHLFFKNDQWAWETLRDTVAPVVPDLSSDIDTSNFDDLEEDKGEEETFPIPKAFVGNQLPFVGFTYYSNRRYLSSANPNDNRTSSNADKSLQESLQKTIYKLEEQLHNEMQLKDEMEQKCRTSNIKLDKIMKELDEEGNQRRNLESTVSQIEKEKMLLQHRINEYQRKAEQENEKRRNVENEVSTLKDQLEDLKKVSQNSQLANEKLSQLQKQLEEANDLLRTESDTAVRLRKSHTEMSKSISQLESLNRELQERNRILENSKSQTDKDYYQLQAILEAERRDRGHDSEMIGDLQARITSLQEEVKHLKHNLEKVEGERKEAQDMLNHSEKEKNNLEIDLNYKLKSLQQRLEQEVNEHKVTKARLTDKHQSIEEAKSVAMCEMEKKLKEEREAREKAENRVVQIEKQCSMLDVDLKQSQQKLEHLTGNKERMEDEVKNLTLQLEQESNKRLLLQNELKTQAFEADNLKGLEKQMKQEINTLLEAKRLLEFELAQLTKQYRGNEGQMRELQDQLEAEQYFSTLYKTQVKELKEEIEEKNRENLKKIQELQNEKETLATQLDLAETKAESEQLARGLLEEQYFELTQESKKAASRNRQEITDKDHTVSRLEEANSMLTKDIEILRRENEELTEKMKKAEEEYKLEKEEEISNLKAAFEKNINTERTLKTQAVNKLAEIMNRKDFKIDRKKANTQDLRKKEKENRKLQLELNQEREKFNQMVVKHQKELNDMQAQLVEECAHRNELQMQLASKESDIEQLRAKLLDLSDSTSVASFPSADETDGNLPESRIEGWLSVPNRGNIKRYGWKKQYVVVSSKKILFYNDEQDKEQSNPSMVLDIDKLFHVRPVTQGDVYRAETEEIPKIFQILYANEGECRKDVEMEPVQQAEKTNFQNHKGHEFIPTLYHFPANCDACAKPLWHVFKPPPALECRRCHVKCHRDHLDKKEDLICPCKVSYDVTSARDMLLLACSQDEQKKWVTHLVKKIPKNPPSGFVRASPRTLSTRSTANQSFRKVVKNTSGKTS
Sequence of Serine/threonine-protein kinase PAK 1 (Q13153 whole entry): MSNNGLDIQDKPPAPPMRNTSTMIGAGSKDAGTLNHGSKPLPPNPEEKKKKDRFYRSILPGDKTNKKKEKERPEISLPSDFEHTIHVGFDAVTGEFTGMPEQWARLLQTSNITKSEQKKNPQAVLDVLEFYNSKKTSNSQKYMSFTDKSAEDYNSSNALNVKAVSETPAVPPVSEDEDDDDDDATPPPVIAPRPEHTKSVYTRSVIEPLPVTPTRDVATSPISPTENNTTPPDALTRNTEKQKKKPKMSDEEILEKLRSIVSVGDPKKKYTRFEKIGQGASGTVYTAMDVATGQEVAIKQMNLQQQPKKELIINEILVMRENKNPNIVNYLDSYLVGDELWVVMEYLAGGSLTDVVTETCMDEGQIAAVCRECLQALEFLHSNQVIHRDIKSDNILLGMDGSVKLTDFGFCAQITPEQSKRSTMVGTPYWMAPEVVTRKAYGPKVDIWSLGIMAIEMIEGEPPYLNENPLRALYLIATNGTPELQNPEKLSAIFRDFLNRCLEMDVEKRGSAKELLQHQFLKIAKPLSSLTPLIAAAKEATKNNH
Sequence of Serine/threonine-protein kinase BRSK1 (Q8TDC3 whole entry): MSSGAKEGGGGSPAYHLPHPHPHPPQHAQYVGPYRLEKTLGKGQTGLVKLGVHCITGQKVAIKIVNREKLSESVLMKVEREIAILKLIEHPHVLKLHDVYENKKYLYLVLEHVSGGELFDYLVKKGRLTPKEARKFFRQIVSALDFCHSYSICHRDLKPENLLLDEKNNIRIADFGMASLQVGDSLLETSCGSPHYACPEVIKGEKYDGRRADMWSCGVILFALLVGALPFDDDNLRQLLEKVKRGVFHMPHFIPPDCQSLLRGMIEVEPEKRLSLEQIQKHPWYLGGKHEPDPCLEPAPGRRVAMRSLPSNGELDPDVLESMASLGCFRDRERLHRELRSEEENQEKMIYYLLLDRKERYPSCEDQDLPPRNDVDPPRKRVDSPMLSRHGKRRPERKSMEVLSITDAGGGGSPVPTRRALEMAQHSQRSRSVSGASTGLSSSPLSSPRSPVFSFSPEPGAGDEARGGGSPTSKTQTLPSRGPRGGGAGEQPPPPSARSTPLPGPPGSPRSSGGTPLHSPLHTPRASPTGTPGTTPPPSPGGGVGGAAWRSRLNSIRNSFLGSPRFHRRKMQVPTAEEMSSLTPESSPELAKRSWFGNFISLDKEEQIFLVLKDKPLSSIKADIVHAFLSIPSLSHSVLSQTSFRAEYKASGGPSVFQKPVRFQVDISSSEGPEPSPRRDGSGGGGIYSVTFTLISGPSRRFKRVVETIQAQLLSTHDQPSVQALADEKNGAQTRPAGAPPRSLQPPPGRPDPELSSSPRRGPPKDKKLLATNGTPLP
Sequence of Lymphokine-activated killer T-cell-originated protein kinase (Q96KB5 whole entry): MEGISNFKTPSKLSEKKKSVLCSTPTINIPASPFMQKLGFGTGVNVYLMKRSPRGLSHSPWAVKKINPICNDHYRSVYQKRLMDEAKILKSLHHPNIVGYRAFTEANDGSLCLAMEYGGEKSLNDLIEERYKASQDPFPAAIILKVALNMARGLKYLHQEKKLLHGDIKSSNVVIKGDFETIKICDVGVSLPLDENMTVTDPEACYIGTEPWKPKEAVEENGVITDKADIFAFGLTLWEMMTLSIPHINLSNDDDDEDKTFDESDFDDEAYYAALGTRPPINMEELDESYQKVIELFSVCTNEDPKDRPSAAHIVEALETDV
Sequence of Serine/threonine-protein kinase Nek2 (P51955 whole entry): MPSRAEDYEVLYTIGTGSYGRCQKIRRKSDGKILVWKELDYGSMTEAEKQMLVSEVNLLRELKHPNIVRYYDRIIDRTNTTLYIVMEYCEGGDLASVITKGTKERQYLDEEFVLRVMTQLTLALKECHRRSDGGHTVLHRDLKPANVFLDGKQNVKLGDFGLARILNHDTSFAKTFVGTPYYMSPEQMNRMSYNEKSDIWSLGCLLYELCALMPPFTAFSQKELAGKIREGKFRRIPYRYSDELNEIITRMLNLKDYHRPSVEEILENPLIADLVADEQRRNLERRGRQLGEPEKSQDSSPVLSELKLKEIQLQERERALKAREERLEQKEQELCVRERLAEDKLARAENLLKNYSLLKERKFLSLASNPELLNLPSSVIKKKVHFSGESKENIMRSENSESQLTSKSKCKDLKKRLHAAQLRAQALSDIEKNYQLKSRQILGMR
Sequence of cAMP-dependent protein kinase catalytic subunit PRKX (P51817 whole entry): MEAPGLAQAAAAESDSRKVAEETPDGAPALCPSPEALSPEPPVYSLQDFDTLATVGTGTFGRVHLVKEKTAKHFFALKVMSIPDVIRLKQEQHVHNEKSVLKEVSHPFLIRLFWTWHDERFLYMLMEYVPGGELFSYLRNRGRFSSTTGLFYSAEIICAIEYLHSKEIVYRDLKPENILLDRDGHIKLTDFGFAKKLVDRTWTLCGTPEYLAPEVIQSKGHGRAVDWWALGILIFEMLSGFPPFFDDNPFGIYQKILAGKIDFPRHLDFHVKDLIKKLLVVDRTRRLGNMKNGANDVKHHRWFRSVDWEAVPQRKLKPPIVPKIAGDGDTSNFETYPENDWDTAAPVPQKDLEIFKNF
Sequence of MAP kinase-activated protein kinase 2 (P49137 whole entry): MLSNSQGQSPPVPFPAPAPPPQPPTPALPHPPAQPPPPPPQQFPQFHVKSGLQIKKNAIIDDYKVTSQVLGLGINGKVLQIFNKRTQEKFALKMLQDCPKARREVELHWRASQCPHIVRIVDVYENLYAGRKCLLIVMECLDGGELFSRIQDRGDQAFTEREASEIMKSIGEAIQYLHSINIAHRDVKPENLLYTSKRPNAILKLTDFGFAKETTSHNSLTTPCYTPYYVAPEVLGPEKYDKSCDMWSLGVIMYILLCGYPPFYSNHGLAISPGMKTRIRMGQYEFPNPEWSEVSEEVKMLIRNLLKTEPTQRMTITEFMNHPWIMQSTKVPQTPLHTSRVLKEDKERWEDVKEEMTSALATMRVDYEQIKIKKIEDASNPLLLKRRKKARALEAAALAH
Sequence of Testis-specific serine/threonine-protein kinase 1 (Q9BXA7 whole entry): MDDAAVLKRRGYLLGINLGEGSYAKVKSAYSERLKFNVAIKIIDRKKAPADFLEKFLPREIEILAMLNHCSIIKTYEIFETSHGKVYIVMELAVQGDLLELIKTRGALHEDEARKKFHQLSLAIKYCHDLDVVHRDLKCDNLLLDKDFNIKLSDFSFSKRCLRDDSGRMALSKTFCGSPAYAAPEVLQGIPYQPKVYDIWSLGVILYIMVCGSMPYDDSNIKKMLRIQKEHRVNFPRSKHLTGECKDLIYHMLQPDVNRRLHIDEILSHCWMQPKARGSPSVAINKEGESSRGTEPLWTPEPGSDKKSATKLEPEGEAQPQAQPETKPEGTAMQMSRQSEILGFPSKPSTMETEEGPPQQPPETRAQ

For `COc1cc2c(cc1F)C(c1ccccc1Cl)=Nc1c(n[nH]c1C)N2` [RG-1530], the Ki was 39.8 nM (active) in test [1]; > 1580 nM (inactive) in test [2]; 1260 nM (active) in test [3]; > 2510 nM (inactive) in test [4]; > 1580 nM (inactive) in [5]; 316 nM (active) in test [6]. Besides, the Ki in test [7] is > 7940 nM (inactive); in test [8], > 6310 nM (inactive); in test [9], > 7940 nM (inactive); in [10] it was 126 nM (active); in test [11] it was > 10000 nM (inactive); at Aurora kinase A, 25.1 nM (active).
Consider `O=C(O)c1ccc(NC2=C(Cl)C(=O)c3ccccc3C2=O)cc1`, for which the EC50 in test [12] was 6240 nM (active).
As for `Cc1nn(C)c2sc3c(=O)[nH]cnc3c12`, the Ki at Aurora kinase A was > 63100 nM (inactive).
Regarding `Cc1ccc2nccc(NC(=O)Nc3cccc(C(F)(F)F)n3)c2c1`, the Ki in test [1] was 2510 nM (active); in test [2], > 2510 nM (inactive); in [3] it was > 10000 nM (inactive); in test [4], > 6310 nM (inactive); in test [5], > 1580 nM (inactive); in test [6] it was > 10000 nM (inactive). Moreover, the Ki in [7] was > 7940 nM (inactive); in test [8], > 10000 nM (inactive); in test [9] it was > 7940 nM (inactive); in [10] it was > 2000 nM (inactive); in [11], 2000 nM (active).
For the compound `COC(=O)CCS(=O)(=O)c1nc(-c2ccccc2)cc(C(F)(F)F)n1`, in test [12], the EC50 is 9590 nM (inconclusive).
Turning to `Cc1c(/N=C2\C=CC(=O)c3ccccc32)c(=O)n(-c2ccccc2)n1C`, in test [13], the AC50 is 2430 nM (active).
For `CCOC(=O)c1c2c(n(Cc3ccccc3)c1C)C(=O)C(=O)c1ccccc1-2`, the AC50 in test [13] was 263 nM (active).

As a reminder, the Ki is the equilibrium dissociation constant of an inhibitor or competing ligand from its target. One may read the EC50 as the concentration needed to bring the measured effect to its halfway point. One may read the AC50 as the concentration at which the activity in the assay is half-maximal.
